The term IC50 denotes the midpoint of a concentration-inhibition curve. Low readings indicate greater potency in that assay, high ones weaker potency in that assay.

Assay [1] has as its system leukaemia HL-60 (TB) cell line. Put plainly: MTT cytotoxicity assay. Type of assay: cell-based. The conditions noted are these: Homo sapiens, mean ± SD of three experiments. (In general: Tetrazolium assays rely on reduction of a dye to a coloured formazan, in cell work by metabolically active cells.)
In a further assay the test system is colon (HCT-15) cell line. The assay is described as follows: MTT cytotoxicity assay. Conditions: Homo sapiens, mean ± SD of three experiments. The format is cell-based.
Another assay relates to renal (UO-31) cell line. The assay is described as follows: MTT cytotoxicity assay. Type of assay: cell-based. Conditions: Homo sapiens, mean ± SD of three experiments.
The subject of another assay is HUVECs. The assay is described as follows: Wound healing assay (CytoSelect 24-well). Type of assay: cell-based, human. The conditions noted are these: 72 h, 5b 2.4 µM, sunitinib 3.2 µM, control 97.03 ± 5.47. The protocol: Wound healing assay of compound 5b was evaluated using CytoSelect™ 24-Well Wound Healing Assay kit Catalog # CBA-120 according to manufacturer’s instructions. In brief, the 24-well plate wound healing inserts were allowed to warm up at room temperature for 10 minutes, then to each well, 500 µl of human umbilical vascular endothelial cells (HUVECs) suspension (1.0 × 10^6) in media containing 10% fetal bovine serum (FBS) was added. Cells were kept in a cell culture incubator until a monolayer form. Carefully the insert was removed from the well. The media were slowly aspirated and discarded from the wells. The wells were washed with media to remove dead cells and debris. Finally, the media were added to wells to keep cells hydrated, then wells were visualized under a light microscope. […] The percent closure of the cells into the wound field was measured.
One of the hallmarks of angiogenesis is cell migration, which happens in the earlier stages of the angiogenic cascade. A wound-healing assay was performed to investigate in vitro anti-angiogenic property of compound 5b.

In another assay the test system is caspase-3. Put plainly: Caspase-3 (active) ELISA in HCT-15 cells. Type of assay: cell-based, human. The protocol:
The level of the apoptotic marker caspase-3 was assessed using Human Caspase-3 (active) ELISA Kit Catalog # KHO1091. The procedure of the used kit was done according to the manufacturer’s instructions. Allow all reagents to reach room temperature before use. Gently mix all liquid reagents prior to use. Add 100 µl of the standard diluent buffer to the zero standard wells. Add 100 µl of standards and controls or diluted samples to the appropriate microtiter wells. Incubate for 2 h at room temperature. […] Incubate for 1 h at room temperature. Add 100 µl anti-rabbit IgG HRP working solution to each well. Prepare the working dilution and incubate for 30 min at room temperature. Add 100 µl of stabilised chromogen to each well. The liquid in the wells will begin to turn blue. Incubate for 30 min at room temperature and in the dark. Add 100 µl of stop solution to each well. The solution in the wells should change from blue to yellow. Read the absorbance of each well at 450 nm. Read the plate within 2 h after adding the stop solution. Use a curve fitting software to generate the standard curve. Read the concentrations for unknown samples and controls from the standard curve.
(§1) The activation of caspases as caspase-3, caspase-8, and caspase-9 is responsible for apoptosis, particularly caspase-3 which is an effector caspase that has an important role in apoptosis. It is activated by one of the initiator caspases which results in the activation of certain enzymes responsible for the fragmentation of DNA[53]. Caspase-8 and -9 are initiator caspases that are responsible for caspase-3 activation.
For orientation: An ELISA detects its analyte on a solid surface through an enzyme-linked reagent.

Another assay relates to caspase-8. The assay is described as follows: Caspase-8 ELISA in HCT-15 cells. Type of assay: cell-based, human. On the procedure: (§2) To measure caspase-8 and caspase-9 levels, DRG® Caspase-8 (human) (EIA-4863) ELISA and DRG® Caspase-9 (human) (EIA-4860) ELISA kits were used. Briefly, prepare cell extracts after induction of apoptosis. Resuspend the extracts in lysis buffer, incubate 60 min at room temperature, and centrifuge for 15 min. Wash the microwell strips with 400 µl wash buffer. Add 100 µl of sample diluent in duplicate to all standard wells. Add 100 µl of sample diluent in duplicate to the blank wells. Add 50 µl of sample diluent to the sample wells. Add 50 µl of each sample in duplicate to the sample wells. Add 50 µl of detection antibody to all wells and incubate at room temperature for 2 h. Add 100 µl of diluted anti-rabbit-IgG-HRP to all wells, including the blank wells. Pipette 100 µl of (3,3′,5,5′-Tetramethylbenzidine) TMB substrate solution to all wells and incubate at room temperature for about 15 min. Stop the enzyme reaction by pipetting 100 µl of stop solution into each well. Read absorbance of each microwell on a spectro-photometer using 450 nm. Determine the absorbance of both the samples and the standards.
as §1

For a further assay, the system named is caspase-9. Put plainly: Caspase-9 ELISA in HCT-15 cells. Type of assay: cell-based, human. On the procedure:
as §2, §1

`CCN(CC)CCNC(=O)c1c(C)[nH]c(/C=C2\C(=O)Nc3ccc(F)cc32)c1C` [Sunitinib, reference compound]: the IC50 in assay [1] came out at 2.77 ± 0.14 µM; in the assay with colon (HCT-15) cell line, 9.06 ± 0.49 µM; in the assay with renal (UO-31) cell line, 18.1 ± 0.95 µM. This compound had a Wound closure percentage in the assay on HUVECs of 44.44 ± 2.51%. In the assay on caspase-3 (mean ± SD of three experiments, control 0.073 ± 0.01), the Caspase-3 was found to be 0.641 ± 0.02 ng/mL. Further, the “increase in the level of caspase-3” value in the assay on caspase-3 (vs control) amounted to 8.780 fold. This compound also came in with a Caspase-8 in the assay with caspase-8 (mean ± SD of three experiments, control 0.377 ± 0.03) of 1.284 ± 0.11 ng/mL. In the assay with caspase-8 (vs control), the “increase in the level of caspase-8” value was 3.406 fold. This compound returned a Caspase-9 with caspase-9 (mean ± SD of three experiments, control 3.225 ± 0.44) of 27.26 ± 0.82 ng/mL. In addition, in the assay on caspase-9 (vs control), the “increase in the level of caspase-9” value is 8.453 fold.

Source of the values: paper PMC8079033, “Design, synthesis, anticancer evaluation, and molecular modelling studies of novel tolmetin derivatives as potential VEGFR-2 inhibitors and apoptosis inducers” (Journal of Enzyme Inhibition and Medicinal Chemistry, 2021).
